Laboratory results taken from US5310916A, “Trifunctional agents useful as irreversible inhibitors of A1-adenosine receptors” (The United States of America as represented by the …, priority 1990, dated 1994).
≈ marks a conversion by molar mass, not a printed value.

Key:
A1-adenosine receptors [1] = target: T1, A1-adenosine receptors (Rattus norvegicus, UniProt P25099); assay: Competitive binding assay at A1 receptors ([3H]RPIA); conditions: for Ki: [3H]RPIA, rat brain membranes, read-out: Ki at central rat receptors, A1; for A2/A1 ratio: ratio of Ki values A2/A1
T1 construct: adenosine receptors in rat cerebral cortex membranes was assayed as described; from tissue; b141 says rat striatum
T1 sequence (P25099 1-326): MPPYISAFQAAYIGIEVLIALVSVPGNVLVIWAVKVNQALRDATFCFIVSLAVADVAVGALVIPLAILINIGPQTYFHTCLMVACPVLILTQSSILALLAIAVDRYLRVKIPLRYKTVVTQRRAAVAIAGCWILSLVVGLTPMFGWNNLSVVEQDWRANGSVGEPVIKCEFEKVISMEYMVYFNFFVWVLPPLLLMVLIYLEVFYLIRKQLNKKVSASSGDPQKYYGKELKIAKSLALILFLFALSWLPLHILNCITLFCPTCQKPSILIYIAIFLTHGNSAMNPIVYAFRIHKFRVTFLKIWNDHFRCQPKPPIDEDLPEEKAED
Description: Table 4 also indicates the synthesis method used for each compound therein.
(§1) A1 ligand = [^3 H]RPIA, A2 ligand = [^3 H]CGS21680
(§2) Inhibition of binding by a range of concentrations of an adenosine derivative was assessed in triplicate in at least three separate experiments. At least seven different concentrations spanning three orders of magnitude, adjusted appropriate for the IC50 of each compound were used. IC50 values Ci/mmol) or [^3 H]CGS21680. Inhibition of [^3 H]NECA binding of to A2 -adenosine receptors in rat striatal membranes were measured as described, except that 5 mM theophylline was used to define non-specific binding. N^6 -Cyclopentyladenosine was present at 50 nM to inhibit binding of the ligand at A1 -adenosine receptors. IC50 values were converted to Ki -values as described.

A2-adenosine receptors = target: T2, A2-adenosine receptors (Rattus norvegicus, UniProt P30543); assay: Competitive binding assay at A2 receptors ([3H]CGS21680); conditions: [3H]CGS21680, rat striatum; read-out: Ki at central rat receptors, A2
T2 construct: adenosine receptors in rat striatal membranes were measured as described; from tissue; host or cells: rat striatal membranes
Description: The Ki values (in nM) for A1 and A2 binding in rat striatum are presented in Table 4 with the relative selectivities expressed as the ratio of Ki values. […] Table 4 also indicates the synthesis method used for each compound therein.
as §1, §2

[2] = Solubility of analogs in pH 7.2 phosphate buffer; format: physicochemical; conditions: aqueous buffer; pH 7.2 phosphate buffer with DMSO, 2-3 h room temperature, absorbance at 310 nm, mean of 3
Description: The method for determining the solubilities of the xanthines is detailed in the Experimental Section below.
Solubility of Analogs. To 675 uL of pH 7.2 phosphate buffer was added 25 uL of a DMSO solution (approx. 10 mM) of the xanthine to be assayed. This was stirred for one minutes by a vortex mixer then left at room temperature for 2-3 hours. In each case (except where noted) a fine precipitate resulted which was collected by centrifugation at the end of the waiting period. After the dissolution period, a 100 uL aliquot of the supernatant was added to 1.0 mL of methanol and the absorbance measured at 310 nm using an extinction coefficient of 28,180 for calculating the concentration. Each xanthine was assayed 3 times and the concentration represent the averages of these 3 determinations.

rat brain A1-receptors = conditions: prior work; cited from earlier work
A1-adenosine receptors [3] = target: T1, A1-adenosine receptors; format: binding; conditions: 0.75 h; for inhibition at 0.02 µM: 20 nM
Description: The degree of irreversible binding was determined as previously described and the percent inhibition of selected compounds is presented in Table 5.
Irreversible Binding to Rat Brain. For studies of irreversible incorporation, membranes were prepared as described above and then incubated with the indicated (Tables I and II) concentration of ligand for 45 minutes at 37° C. […] Membranes were then suspended in Buffer A containing 10^-4 M 3-isobutyl-1-methylxanthine (IBMX) and incubated at 25° C. for 18 hours with shaking. Membranes were then washed twice with Buffer A, treated with adenosine deaminase as described above, and used in radioligand binding studies as described above.
The long treatment with IBMX was found necessary to remove all of the non-incorporated ligands from membranes. Multiple washes (up to 8) with buffer alone were insufficient to remove all the reversibly bound ligands.

T2 sequence (P30543 whole entry): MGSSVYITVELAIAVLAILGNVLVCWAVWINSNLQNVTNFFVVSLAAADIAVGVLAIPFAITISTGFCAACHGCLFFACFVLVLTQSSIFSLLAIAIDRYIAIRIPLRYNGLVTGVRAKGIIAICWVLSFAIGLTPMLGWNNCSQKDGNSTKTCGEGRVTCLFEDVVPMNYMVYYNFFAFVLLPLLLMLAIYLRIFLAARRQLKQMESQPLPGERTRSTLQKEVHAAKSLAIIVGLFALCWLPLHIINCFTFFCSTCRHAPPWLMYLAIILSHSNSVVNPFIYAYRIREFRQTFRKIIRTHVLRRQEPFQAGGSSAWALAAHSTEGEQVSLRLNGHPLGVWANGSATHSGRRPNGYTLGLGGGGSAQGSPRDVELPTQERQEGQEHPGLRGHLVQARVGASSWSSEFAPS

Row | SMILES | Ki (A1-adenosine receptors [1]) | A2/A1 ratio (A1-adenosine receptors [1]) | Ki (A2-adenosine receptors) | solubility [2] | Ki (rat brain A1-receptors) | inhibition at 0.005 µM (A1-adenosine receptors [3]; 5 nM) | inhibition at 0.02 µM (A1-adenosine receptors [3]) | inhibition at 0.05 µM (A1-adenosine receptors [3]; 50 nM)
1 | CCCn1c(=O)c2[nH]c(-c3ccc(OCC(=O)NCCNC(=S)Nc4cc(N=C=S)cc(C(=O)OC(=O)c5cc(N=C=S)cc(N=C=S)c5)c4)cc3)nc2n(CCC)c1=O | 45 ± 3.5 nM | 11 | 493 ± 200 nM |  |  |  |  | 
2 | CCCn1c(=O)c2[nH]c(-c3ccc(OCC(=O)NCCNC(=S)Nc4cc(N=C=S)cc(NC(=S)NCC(=O)OC(C)(C)C)c4)cc3)nc2n(CCC)c1=O | 8.3 ± 2.2 nM | 397 | 3290 nM |  |  |  |  | 
3 | CCCn1c(=O)c2[nH]c(-c3ccc(OCC(=O)NCCNC(=S)Nc4cc(N=C=S)cc(NC(=S)NCCNc5ccc(N=[N+]=[N-])cc5[N+](=O)[O-])c4)cc3)nc2n(CCC)c1=O | 27.3 ± 7.2 nM | 31 | 842 nM |  |  |  |  | 
4 | CCCn1c(=O)c2[nH]c(-c3ccc(OCC(=O)NCCNC(=S)Nc4cc(N=C=S)cc(NC(=S)NCCNC(=O)c5ccc(N=[N+]=[N-])cc5O)c4)cc3)nc2n(CCC)c1=O | 25.2 nM | 14 | 341 nM |  |  |  |  | 
5 | CCCn1c(=O)c2[nH]c(-c3ccc(OCC(=O)NCCNC(=S)Nc4cccc(N=C=S)c4)cc3)nc2n(CCC)c1=O [Compound 7] | 2.39 ± 0.35 nM | 144 | 343 nM | 90.1 ± 0.56 µM (≈ 55.9 µg/mL) | 2.4 nM |  |  | 
6 | CCCn1c(=O)c2[nH]c(-c3ccc(OCC(=O)NCCNC(=S)Nc4cccc(N=C=S)n4)cc3)nc2n(CCC)c1=O [Compound 8, 1,3-Dipropyl-8-(4-(((((2-((((6-isothiocyanatopyrido)amino)thiocarbonyl)amino)ethyl)amino)carbonyl)methyl)oxy)phenyl)xanthine] | 16.2 ± 1.96 nM | 27 | 432 ± 20 nM | 17.5 ± 0.06 µM (≈ 10.9 µg/mL) |  |  |  | 
7 | CCCn1c(=O)c2[nH]c(-c3ccc(OCC(=O)NCCNC(=S)Nc4cc(CO)cc(N=C=S)c4)cc3)nc2n(CCC)c1=O [Compound 9, 1,3-Dipropyl-8-(4-(((((2-((((3-hydroxymethyl-5-isothiocyanatophenyl)amino)thiocarbonyl)amino)ethyl)amino)carbonyl)methyl)oxyl)phenyl)xanthine] | 13.4 ± 2.64 nM | 32 | 433 ± 45 nM | 10.8 ± 0.03 µM (≈ 7.03 µg/mL) |  |  |  | 
8 | CCCn1c(=O)c2[nH]c(-c3ccc(OCC(=O)NCCNC(=S)Nc4cc(N=C=S)cc(C(=O)OCC)c4)cc3)nc2n(CCC)c1=O [Compound 11, 1,3-Dipropyl-8-(4-(((((2-((((3-carbethoxy-5-isothiocyanatophenyl)amino)thiocarbonyl)amino)ethyl)amino)carbonyl)methyl)oxyl)phenyl)xanthine] | 41.6 ± 8.2 nM | 19 | 815 ± 145 nM | 9.33 ± 0.43 µM (≈ 6.46 µg/mL) |  |  |  | 
9 | CCCn1c(=O)c2[nH]c(-c3ccc(OCC(=O)NCCNC(=S)Nc4cc(N=C=S)cc(C(N)=O)c4)cc3)nc2n(CCC)c1=O [Compound 13, 1,3-Dipropyl-8-(4-(((((2-((((3-carboxamide-5-isothiocyanatophenyl)amino)thiocarbonyl)amino)ethyl)amino)carbonyl)methyl)oxy)phenyl)xanthine] | 9.47 ± 2.99 nM | 39 | 365 ± 35 nM | 31.4 ± 0.39 µM (≈ 20.8 µg/mL) |  | 68 ± 7.5% | 90.3 ± 7% | 
10 | CCCn1c(=O)c2[nH]c(-c3ccc(OCC(=O)NCCNC(=S)Nc4cc(N=C=S)cc(C(=O)NCCN(C)C)c4)cc3)nc2n(CCC)c1=O [Compound 14, 1,3-Dipropyl-8-(4-(((((2-((((3-(2-dimethylaminoethylcarboxamide)-5-isothiocyanatophenyl)amino)thiocarbonyl)amino)ethyl)amino)carbonyl)methyl)oxy)phenyl)xanthine] | 7.62 ± 2.19 nM | 65 | 497 ± 74 nM | 28.7 ± 0.03 µM (≈ 21.1 µg/mL) |  |  | 30 ± 8.7% | 46.3 ± 21.8%
11 | CCCn1c(=O)c2[nH]c(-c3ccc(OCC(=O)NCCNC(=S)Nc4cc(N=C=S)cc(C(=O)NCCNC(C)=O)c4)cc3)nc2n(CCC)c1=O [Compound 16, 1,3-Dipropyl-8-(4-(((((2-((((3-(2-acetylaminoethylcarboxamide)-5-isothiocyanatophenyl)amino)thiocarbonyl)amino)ethyl)amino)carbonyl)methyl)oxy)phenyl)xanthine] | 7.01 ± 0.52 nM | 35 | 247 ± 36 nM | > 1000 µM |  |  |  | 
12 | CCCn1c(=O)c2[nH]c(-c3ccc(OCC(=O)NCCNC(=S)Nc4cc(N=C=S)cc(C(=O)NCCNC(=O)CCc5ccc(O)cc5)c4)cc3)nc2n(CCC)c1=O [Compound 17] | 7.08 ± 1.91 nM | 198 | 1400 nM |  |  |  |  | 
13 | CCCn1c(=O)c2[nH]c(-c3ccc(OCC(=O)NCCNC(=S)Nc4cc(N=C=S)cc(N=C=S)c4)cc3)nc2n(CCC)c1=O [Compound 23, 1,3-Dipropyl-8-(4-(((((2-((((3,5-diisothiocyanatophenyl)amino)thiocarbonyl)amino)ethyl)amino)carbonyl)methyl)oxy)phenyl)-xanthine] | 3.96 ± 0.59 nM | 894 | 3540 ± 936 nM |  |  |  |  | 
14 | CCCn1c(=O)c2[nH]c(-c3ccc(OCC(=O)NCCNC(=S)Nc4cc(N=C=S)cc(NC(=S)NCCN(C)C)c4)cc3)nc2n(CCC)c1=O [Compound 24] | 77.2 ± 2.5 nM | 25 | 1910 ± 303 nM |  |  |  |  | 
15 | CCCn1c(=O)c2[nH]c(-c3ccc(OCC(=O)NCCNC(=S)Nc4cc(N=C=S)cc(NC(=S)NCCNC(C)=O)c4)cc3)nc2n(CCC)c1=O [Compound 25] | 57.6 ± 15.7 nM | 44 | 2540 ± 283 nM | > 100 µM |  |  |  | 
16 | CCCn1c(=O)c2[nH]c(-c3ccc(OCC(=O)NCCNC(=S)Nc4cc(N=C=S)cc(C(=O)NCCNc5ccc([N+](=O)[O-])c6nonc56)c4)cc3)nc2n(CCC)c1=O [R' = CONH(CH2)2 NH-NBD] | 18.1 nM | 73 | 1330 nM |  |  |  |  | 
17 | CCCn1c(=O)c2[nH]c(-c3ccc(OCC(=O)NCCNC(=S)Nc4cc(N=C=S)cc(C(=O)NCCNC(=O)CCCC[C@@H]5SC[C@@H]6NC(=O)N[C@@H]65)c4)cc3)nc2n(CCC)c1=O [R' = CONH(CH2)2 NHCO-biotin] | 20.1 ± 3.3 nM | 572 | 11500 nM |  |  |  |  | 
18 | CCCn1c(=O)c2[nH]c(-c3ccc(OCC(=O)NCCNC(=S)Nc4cc(N=C=S)cc(C(=O)NCCNC(=O)CBr)c4)cc3)nc2n(CCC)c1=O [R' = CONH(CH2)2 NHCOCH2 Br] | 15.8 nM | 44 | 688 nM |  |  |  |  | 
19 | CCCn1c(=O)c2[nH]c(-c3ccc(OCC(=O)NCCNC(=S)Nc4cc(N=C=S)cc(NC(=S)NCCNC(=S)Nc5ccc(C(=O)O)c(-c6c7ccc(=O)cc-7oc7cc(O)ccc67)c5)c4)cc3)nc2n(CCC)c1=O [R' = NHCSNH(CH2)2 NHCSNH-fluorescein] | 234 ± 32.5 nM | 8 | 1790 nM |  |  |  |  | 
20 | CCCn1c(=O)c2[nH]c(-c3ccc(OCC(=O)NCCN)cc3)nc2n(CCC)c1=O [XAC, 8-[4-[[[[(2-aminoethyl)-amino]carbonyl]methyl]oxy]phenyl]-1,3-dipropylxanthine] |  |  |  |  | 1.2 nM |  |  | 
21 | CCCn1c(=O)c2[nH]c(-c3ccc(OCC(=O)NCCNC(=S)Nc4ccc(N=C=S)cc4)cc3)nc2n(CCC)c1=O [p-DITC-XAC (2b)] |  |  |  |  | 6.6 nM |  |  | 
